In PubChem BioAssay (NCI):
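Five concentrations, 48 hours, 96-well plates. GI50 marks 50% less growth. Definition used: TGI = concentration required for complete inhibition of growth.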

Assays:
Test in all cases: NCI tumour cell line growth inhibition, 48 h
786-0 renal = test system: 786-0 renal
A549 NSCLC = test system: A549 NSCLC
ACHN renal = test system: ACHN renal
BT-549 breast = test system: BT-549 breast
HCT-15 colon = test system: HCT-15 colon
HT29 colon = test system: HT29 colon
M14 melanoma = test system: M14 melanoma
MALME-3M melanoma = test system: MALME-3M melanoma
SN12C renal = test system: SN12C renal
U251 CNS = test system: U251 CNS

Row | Compound | TGI (786-0 renal) | TGI (A549 NSCLC) | TGI (ACHN renal) | TGI (BT-549 breast) | TGI (HCT-15 colon) | TGI (HT29 colon) | TGI (M14 melanoma) | TGI (MALME-3M melanoma) | TGI (SN12C renal) | TGI (U251 CNS) | GI50 (SN12C renal)
1 | [N-]=[N+]=NC1=C(N=[N+]=[N-])c2cccc3cccc(c23)C1=O | > 100 µM | > 100 µM | > 100 µM | > 100 µM | > 100 µM | > 100 µM | > 100 µM | > 100 µM | > 100 µM | > 100 µM | –
2 | CSc1nc2ccccc2c(=O)n1-c1cccc(C)c1 | > 100 µM | > 100 µM | > 100 µM | > 100 µM | > 100 µM | > 100 µM | > 100 µM | > 100 µM | > 100 µM | > 100 µM | –
3 | c1cc(-c2ccc(Oc3ccc(-c4ccncc4)cc3)cc2)ccn1 | > 100 µM | > 100 µM | > 100 µM | > 59.7 µM | 96.9 µM | > 49.6 µM | > 100 µM | > 44 µM | > 100 µM | > 48.8 µM | –
4 | O=Cc1cc(O)ccc1Br | > 78.3 µM | > 100 µM | 60 µM | > 83.4 µM | 40.7 µM | 67.5 µM | > 92.2 µM | > 31.6 µM | > 100 µM | 41.3 µM | –
5 | NC(=S)NS(=O)(=O)c1ccc(F)cc1 | > 100 µM | > 100 µM | > 100 µM | > 100 µM | > 100 µM | > 100 µM | > 100 µM | > 100 µM | > 100 µM | > 100 µM | –
6 | COc1ccc(OC)c(CC(=O)c2ccc(O)c(C(=O)NCCc3ccc(F)cc3)c2)c1 | 24.5 µM | 37.6 µM | 56.9 µM | 38.5 µM | 17.1 µM | 30.5 µM | 9.2 µM | 6.9 µM | 19.4 µM | 13.7 µM | 4.26 µM
7 | NC(N)=NCCCS(=O)(=O)Nc1ccc(Nc2c3ccccc3nc3cc([N+](=O)[O-])ccc23)cc1 | 53.2 µM | 36.6 µM | 63 µM | 94.4 µM | > 100 µM | 55 µM | > 87.2 µM | 37.2 µM | 60.9 µM | 29.5 µM | –
8 | Nc1nc(SCC(=O)c2ccccc2)nc2nc3c(c(-c4ccccc4)c12)CCCC3 | 56.1 µM | > 100 µM | > 100 µM | > 100 µM | > 100 µM | > 100 µM | > 100 µM | > 100 µM | > 100 µM | > 100 µM | –
9 | CN(C)c1ccc(C=Nc2ccc(-c3nc4ccccc4o3)cc2)cc1 | > 100 µM | > 100 µM | > 100 µM | > 100 µM | > 100 µM | > 100 µM | > 100 µM | > 100 µM | > 100 µM | > 100 µM | –
10 | COc1cc(O)c2c(=O)cc(C3(OC(C)=O)C=CC(OC4OC(CO)C(O)C(O)C4O)C=C3)oc2c1 (stereo unspecified) | > 100 µM | > 100 µM | > 100 µM | > 100 µM | > 100 µM | > 100 µM | > 100 µM | > 100 µM | > 100 µM | > 100 µM | –
11 | CCOP(=O)(OCC)OC1CC(n2cnc3c(N(CC)CC)ncnc32)OC1CO[Si](C)(C)C(C)(C)C (stereo unspecified) | 30 µM | 29.8 µM | 28.8 µM | 29.7 µM | 45 µM | 35 µM | 33.1 µM | 41.4 µM | 37.8 µM | 28.7 µM | –
12 | CCC1c2[nH]c3ccccc3c2C[C@H]2C(=O)NC(Cc3ccccc3)C(=O)N12 (stereo partly specified) | > 100 µM | > 100 µM | > 100 µM | 62.4 µM | > 100 µM | 52.6 µM | 86.1 µM | 43.1 µM | 79.9 µM | 56.3 µM | –
13 | COc1ccc2[nH]c3c(c2c1)CCc1ccccc1-3 | > 100 µM | > 100 µM | > 100 µM | > 100 µM | > 100 µM | > 100 µM | > 100 µM | > 100 µM | > 100 µM | > 100 µM | –
14 | COC(=O)C1(Cc2ccccc2C)Cc2ccc(C)cc2C1=O (stereo unspecified) | > 100 µM | > 100 µM | > 100 µM | > 100 µM | > 100 µM | 57.5 µM | > 100 µM | 72.6 µM | 57.4 µM | > 100 µM | –
15 | CCC/C(Cl)=N/OC(=O)Nc1cccc(F)c1 | 3.2 µM | 41.6 µM | 2.88 µM | 10.4 µM | 4.1 µM | 9.35 µM | 14.7 µM | 3.11 µM | 15.2 µM | 32.6 µM | –
16 | O=C1C(c2c(O)n(-c3ccccc3)c3ccccc23)=Nc2ccccc21 | 36.7 µM | > 100 µM | 79.5 µM | > 100 µM | > 100 µM | > 100 µM | > 100 µM | > 100 µM | > 100 µM | > 100 µM | –
17 | N/C(=N/O)c1cn(C2OC(CO)C(O)C2O)c2ncnc(NO)c12 (stereo unspecified) | > 100 µM | > 100 µM | 4.72 µM | > 100 µM | > 100 µM | > 100 µM | 2.88 µM | 0.408 µM | > 100 µM | 54.1 µM | –
18 | O=[N+]([O-])c1ccc2nc(/C=C(\O)c3ccccc3)c(/C=C(\O)c3ccc(Cl)cc3)nc2c1 | > 100 µM | > 100 µM | > 100 µM | > 100 µM | > 100 µM | > 100 µM | > 100 µM | > 100 µM | > 100 µM | > 100 µM | –
19 | Cc1[nH]c2ncn(N)c(=N)c2c1Cc1ccccc1 | > 100 µM | > 100 µM | > 100 µM | > 100 µM | > 100 µM | > 100 µM | > 100 µM | > 100 µM | > 100 µM | > 100 µM | –

Row | Compound | TGI (786-0 renal) | TGI (A549 NSCLC) | TGI (ACHN renal) | TGI (BT-549 breast) | TGI (HCT-15 colon) | TGI (HT29 colon) | TGI (M14 melanoma) | TGI (MALME-3M melanoma) | TGI (SN12C renal) | TGI (U251 CNS) | GI50 (SN12C renal)
20 | ClCc1nc2cc(Cl)ccc2o1 | 3.34 µM | 42.2 µM | 3.33 µM | 28.2 µM | 16.7 µM | 6.5 µM | 17.4 µM | 27.3 µM | 20.9 µM | 9.13 µM | –
21 | CCCNc1c(Cl)cc(Cl)c2[nH]c3ccccc3c(=O)c12 | > 100 µM | > 100 µM | > 100 µM | > 100 µM | > 100 µM | > 100 µM | > 100 µM | 75.3 µM | > 100 µM | > 100 µM | –
22 | CCOC(=O)c1c(C)n(-c2ccc(C)cc2)c2c1cc(O)c1[nH]c3c(c12)CCCC3 | 37.1 µM | > 100 µM | > 100 µM | 26.2 µM | > 100 µM | 32.3 µM | 42.6 µM | 37 µM | > 100 µM | 34.8 µM | –
23 | c1ncc(C23C4C5C6C4C2C6C53)[nH]1 (stereo unspecified) | > 100 µM | > 100 µM | > 100 µM | > 100 µM | > 100 µM | > 100 µM | > 100 µM | > 100 µM | > 100 µM | > 100 µM | –
24 | O=c1[nH]nc(Cc2ccc(Cl)cc2)n1Nc1ccccc1 | > 100 µM | > 100 µM | > 100 µM | > 100 µM | > 100 µM | > 100 µM | > 100 µM | > 100 µM | > 100 µM | > 100 µM | –
25 | C=CCSC1=N/C(=C\c2ccco2)C(=O)N1CC=C | > 100 µM | > 100 µM | > 100 µM | > 100 µM | > 100 µM | > 100 µM | > 100 µM | > 100 µM | > 100 µM | > 100 µM | –
26 | COc1cc([C@@H]2c3cc4c(cc3[C@@H](N=Cc3ccc(C(=O)O[C@H]5C[C@H]6OC[C@@]6(OC(C)=O)[C@H]6[C@H](OC(=O)c7ccccc7)[C@]7(O)C[C@H](OC(=O)[C@H](OC(=O)c8ccc(C=N[C@@H]9c%10cc%11c(cc%10[C@@H](c%10cc(OC)c(O)c(OC)c%10)[C@H]%10C(=O)OC[C@@H]%109)OCO%11)cc8)[C@@H](NC(=O)c8ccccc8)c8ccccc8)C(C)=C([C@@H](OC(C)=O)C(=O)[C@]56C)C7(C)C)cc3)C3COC(=O)C32)OCO4)cc(C)c1O (stereo partly specified) | > 50 µM | > 50 µM | > 50 µM | > 50 µM | > 50 µM | > 25.2 µM | > 21 µM | > 50 µM | > 50 µM | > 31.6 µM | –
27 | CCCCC[C@H]1CC=CC(=O)O1 | 13.3 µM | 60.5 µM | 43.6 µM | 20.3 µM | 20.9 µM | 19.8 µM | 26.7 µM | 33.9 µM | 23.8 µM | 20.8 µM | –
28 | Nc1cccc2cc(S(=O)(=O)Nc3ccc(C(=O)O)cc3)ccc12 | > 100 µM | > 100 µM | > 100 µM | > 100 µM | > 100 µM | > 100 µM | > 100 µM | > 100 µM | > 100 µM | > 100 µM | –
29 | CC1(c2nc3ccccc3[nH]2)CCC(CO)C(C)(C)O1 (stereo unspecified) | > 100 µM | > 100 µM | > 100 µM | > 100 µM | > 100 µM | > 100 µM | > 100 µM | > 100 µM | > 100 µM | > 100 µM | –
30 | O=C(N/N=C1\CCc2ccccc21)N/N=C1\CCc2ccccc21 | > 100 µM | > 100 µM | > 100 µM | > 100 µM | > 100 µM | > 100 µM | 26.3 µM | > 100 µM | > 100 µM | > 100 µM | –
31 | O=C(O)C1CCCCN1CCc1c[nH]c2ccccc12 (stereo unspecified) | > 100 µM | > 100 µM | > 100 µM | > 100 µM | > 100 µM | > 100 µM | > 100 µM | > 100 µM | > 100 µM | > 100 µM | –
32 | Cc1ccc(CCCC(=O)O)cc1C | > 100 µM | > 100 µM | > 100 µM | > 100 µM | > 100 µM | > 100 µM | > 100 µM | > 100 µM | > 100 µM | > 100 µM | –
33 | COC(=O)/C=C(\S/C(=C(/c1ccccc1)n1cc(C(=O)OC)c(C(=O)OC)n1)c1ccccc1)C(=O)OC | > 100 µM | 62.6 µM | 10.6 µM | 98.7 µM | 29 µM | 18.6 µM | 29.8 µM | 31.9 µM | 40.9 µM | 66.1 µM | –
34 | O=C(O)c1ccccc1/C=C1\Cc2ccc3c(c2C1=O)CCCC3 | > 100 µM | > 100 µM | > 100 µM | > 100 µM | > 100 µM | > 100 µM | 81.1 µM | > 100 µM | > 100 µM | > 100 µM | –
35 | N#Cc1c(-c2ccccc2)cc(Nc2ccc(F)cc2)n2c1nc1ccccc12 | 10 µM | > 100 µM | 10.6 µM | > 25.2 µM | > 30.4 µM | 6.43 µM | > 100 µM | > 28.4 µM | 6.1 µM | 8.11 µM | –
36 | CC(=O)NC1C(OCc2ccccc2)OC(CO)C(O)C1OCC(=O)NC(C)C(=O)NC(CCC(=O)Nc1ccc2c(c1)CN1C(=O)c3ccccc3C1=N2)C(N)=O (stereo unspecified) | > 100 µM | > 100 µM | > 100 µM | > 100 µM | > 100 µM | > 100 µM | > 100 µM | > 100 µM | > 100 µM | > 100 µM | –
37 | CC1=NN(c2ccccc2Cl)C2(C1)SCC(=O)N2c1nc2ccccc2s1 (stereo unspecified) | > 100 µM | > 100 µM | > 100 µM | > 100 µM | > 100 µM | > 100 µM | > 100 µM | > 100 µM | > 100 µM | > 100 µM | –
